Assay results reported in ChEMBL document CHEMBL1131400, “Synthesis and comparative evaluation of two antiviral agents: beta-L-Fd4C and beta-D-Fd4C” (Bioorg Med Chem Lett, 1998).
pEC50, pIC50: −log10 of the molar value.

What was measured:
CCRF-CEM [1] = test: In vitro inhibitory activity against growth of HIV infected CEM cells combined with murine CTLL-2T lymphoblast cell line; assay type: functional, cell-based; conditions: Homo sapiens
CCRF-CEM [2] = test: In vitro inhibitory activity against growth of HIV infected CEM cell line; assay type: functional, cell-based; conditions: Homo sapiens
[3] = test system: Human immunodeficiency virus; test: In vitro inhibitory activity against proliferation of HIV viral cell; assay type: functional, organism-based; conditions: Human immunodeficiency virus 1
DLD-1 = test: In vitro inhibitory activity against growth of HIV infected DLD-1 cell line; assay type: functional, cell-based; conditions: Homo sapiens
HepG2 = test: In vitro inhibitory activity against growth of HIV infected HepG2 cell line; assay type: functional, cell-based; conditions: Homo sapiens
Rat1 = test: In vitro inhibitory activity against growth of HIV infected Rat-1 cell line; assay type: functional, cell-based
MT2 = test: In vitro inhibitory activity against growth of HIV infected MT-2/IIIB cell line; assay type: functional, cell-based; conditions: Homo sapiens
Hepatitis B virus = test: In vitro inhibitory activity against proliferation of HBV viral cell; assay type: functional, organism-based
B16 = test: In vitro inhibitory activity against growth of HIV infected B16 cell line; assay type: functional, cell-based; conditions: Mus musculus

pIC50 (CCRF-CEM [1]) | pIC50 (CCRF-CEM [2]) | pIC50 (DLD-1) | pIC50 (HepG2) | pIC50 (B16) | SMILES | pEC50 [3] | pIC50 (Rat1) | pIC50 (MT2) | pEC50 (Hepatitis B virus)
3.90 | 4.00 | < 3.70 | < 3.70 | < 3.70 | Nc1nc(=O)n([C@H]2C=C[C@@H](CO)O2)cc1F [DEXELVUCITABINE] | 6.70 | < 3.70 | 4.00 | > 6.52
4.62 | 5.19 | < 3.70 | < 3.70 | < 3.70 | Nc1nc(=O)n([C@@H]2C=C[C@H](CO)O2)cc1F [ELVUCITABINE] | 6.70 | < 3.70 | 5.05 | 
